# Entries after “also recorded” stand apart in the source; their conditions may differ. Read-outs that look alike come from different tables or passages of the source.
# Tests used:
# Assay type in all cases: cell-based
# [1] = system: homologous recombination (HR) repair of Cas9 DSB in HEK293FT cells; assay: RepairSwitch assay, rate of HR (EGFP to BFP switch, flow cytometry); conditions: for IC50: RepairSwitch, 1 week after transfection, read-out: IC50 for inhibition of HR rate; for Effect on rate of HR: dose range 1 nm to 10 uM
# Method: (§1) All cell lines were plated in 12-well plates at 2.5E5 cells/well in their respective growth mediums. The growth medium was then replaced after 24-48 hours and the cells were transfected with lug of CRISPR/Cas9 gRNA construct, lug of HR repair template, or both gRNA and HR repair template (2 ug total) in combination using FuGENE HD (Promega) at a FuGENE to DNA ratio of 3:1. The DNA was mixed with Opti-MEM (50 ul Opti-MEM/ug DNA) and FuGENE was added for an incubation period of 15 minutes before being added dropwise to the well. If drug is being utilized, cells are dosed immediately prior to transfection. Fresh growth medium was replaced every 48-72 hours. Cells were kept in culture for 1 week before assessment of fluorescence via flow cytometry.
# (§2) All drugs were dissolved in DMSO as per Selleck instructions. For cell-based work drugs were diluted to a final concentration of 0.001% DMSO. All drugs were given in a dose range of 1 nm to 10 uM, unless toxicity was shown in Incucyte proliferation assays (S1, S2).
# (§3) Medium was removed from 12-well plates and cells were detached from plate using TrypLE Express. FBS containing medium was used to neutralize TrypLE Express and cells were collected and spun down at 1000 RPM for 5 min. Cell pellets were then washed with PBS twice before resuspension in 500 ul PBS and put on ice. Prior to flow of each sample, cells were resuspended and put through a cell-strainer cap on the flow tube. Cells were gated to ensure single cell population as well as high DsRed expression. For each sample, 10,000-30,000 high DsRed expressing cells were counted depending on sample concentration, and assessed for both EGFP and BFP expression. FlowJo was utilized to analyze all flow cytometry results and to produce statistics on each population.
# Graphpad Prism was utilized to visualize statistical results from FlowJo. Additionally, it was utilized to provide statistical analyses of p value using unpaired t-tests.
# The RepairSwitch assay was developed to measure the balance of HR- and NHEJ-mediated double-strand break (DSB) repair. To accomplish this, it was necessary to design assay vectors that could be lenti-virally transduced into cells and would thereby be incorporated into the genome. […] Additionally, it allowed DsRed to serve as a transduction control to ensure vector integration at an MOI of 0.3, while EGFP served as a target for CRISPR/Cas9 induced DSB. […] Additionally, in conjunction with the administration of the CRISPR/Cas9 EGFP gRNA, exogenous single stranded DNA oligos were administered in excess and act as the repair template. In this system, the resulting fluorescence, post CRISPR/Cas9 cutting at the target locus, is dependent on the method of repair. Upon utilization of the repair template in repair via homologous recombination (HR) the resulting locus will be converted from EGFP to BFP. This is possible due to the sequence similarity of these fluorescent proteins, which differ in only two bases, resulting in the substitution of two adjacent amino acids. […] Either, the EGFP fluorescence will be extinguished due to the error prone repair, or it is possible for the EGFP protein to be repaired correctly or with a silent mutation via NHEJ, thereby producing a viable fluorescent signal. […] A schematic of the RepairSwitch assay readout (FIG. 1B) provides a concise overview of the possible fluorescent outcomes and their respective implications.
# [2] = system: non-homologous end joining (NHEJ) repair of Cas9 DSB in HEK293FT cells; assay: RepairSwitch assay, rate of NHEJ (loss of EGFP, flow cytometry); conditions: dose range 1 nm to 10 uM
# Method: as §1, §2
# Medium was removed from 12-well plates and cells were detached from plate using TrypLE Express. FBS containing medium was used to neutralize TrypLE Express and cells were collected and spun down at 1000 RPM for 5 min. […] For each sample, 10,000-30,000 high DsRed expressing cells were counted depending on sample concentration, and assessed for both EGFP and BFP expression. […]
# (§4) The RepairSwitch assay was developed to measure the balance of HR- and NHEJ-mediated double-strand break (DSB) repair. […] In this system, the resulting fluorescence, post CRISPR/Cas9 cutting at the target locus, is dependent on the method of repair. […] Either, the EGFP fluorescence will be extinguished due to the error prone repair, or it is possible for the EGFP protein to be repaired correctly or with a silent mutation via NHEJ, thereby producing a viable fluorescent signal. […] A schematic of the RepairSwitch assay readout (FIG. 1B) provides a concise overview of the possible fluorescent outcomes and their respective implications.
# [3] = system: homologous recombination (HR) repair of Cas9 DSB in HCT116 cells; assay: cells; conditions: for Effect on rate of HR: HCT116 cells
# Method: (§5) All cell lines were plated in 12-well plates at 2.5E5 cells/well in their respective growth mediums. […]. The DNA was mixed with Opti-MEM (50 ul Opti-MEM/ug DNA) and FuGENE was added for an incubation period of 15 minutes before being added dropwise to the well. If drug is being utilized, cells are dosed immediately prior to transfection. Fresh growth medium was replaced every 48-72 hours. Cells were kept in culture for 1 week before assessment of fluorescence via flow cytometry.
# (§6) All compounds used can be found listed in Table 1, and all were purchased from Selleck. All drugs were dissolved in DMSO as per Selleck instructions. […].
# as §3
# Graphpad Prism was utilized to visualize statistical results from FlowJo. […]
# as §4
# [4] = system: non-homologous end joining (NHEJ) repair of Cas9 DSB in HCT116 cells; assay: RepairSwitch assay, rate of NHEJ (loss of EGFP, flow cytometry)
# Method: as §5, §6
# Medium was removed from 12-well plates and cells were detached from plate using TrypLE Express. […] For each sample, 10,000-30,000 high DsRed expressing cells were counted depending on sample concentration, and assessed for both EGFP and BFP expression. […]
# The RepairSwitch assay was developed to measure the balance of HR- and NHEJ-mediated double-strand break (DSB) repair. […] In this system, the resulting fluorescence, post CRISPR/Cas9 cutting at the target locus, is dependent on the method of repair. […] Either, the EGFP fluorescence will be extinguished due to the error prone repair, or it is possible for the EGFP protein to be repaired correctly or with a silent mutation via NHEJ, thereby producing a viable fluorescent signal. […]
Compound,IC50 [1],Effect on rate of HR [1],Effect on rate of NHEJ [2],IC50 ([1]; 168 h),Effect on rate of HR ([1]; listed as decitabine),Effect on rate of NHEJ ([2]; listed as decitabine),Effect on rate of HR [3],Effect on rate of HR ([3]; listed as decitabine),"IC50 ([3]; Homo sapiens, HCT-116, read-out: IC50 for inhibition of HR rate)",Effect on rate of NHEJ [4],Effect on rate of NHEJ ([4]; listed as decitabine)
Olaparib,739 nM,lower potency in modulating HR and NHEJ; also recorded: subtle reduction in rates of HR,lower potency in modulating HR and NHEJ; also recorded: subtle increase in the rates of NHEJ,–,–,–,–,–,–,–,–
Nc1ncn([C@H]2C[C@H](O)[C@@H](CO)O2)c(=O)n1 [Decitabine],–,dose responsive decrease in the rates of HR,compensatory increase in the rates of NHEJ,187 nM,reduced HR,increased rates of NHEJ,also consistent in HCT116 cells,reduced HR,1400 nM,also consistent in HCT116 cells,increased rates of NHEJ
